Data set [1] concerns HIV-1 vector (D3-GFP) in primary human macrophages. Briefly: HIV-GFP vector transduction of primary macrophages (GFP FACS). The class given is cell-based. To be noted: ddUTP pretreated macrophages, flow cytometry. In general terms: A flow cytometer gives signals particle by particle.
Protocol: Human primary macrophages were preincubated with different concentrations of rACT (0, 10, 100 and 100 μM) for 24 hours and then transduced with HIV-GFP vector (equal p24 amounts). The percentages of GFP positive macrophages and PI positive cells in a representative donor, which were determined by FACS at 7 days post transduction, are shown. […] These experiments were performed in triplicate from three different blood donors.
Primary human macrophages were pretreated with ddUTP and transduced with a single round VSV-G pseudotyped HIV-1 vector (D3HIV). […] FIG. 10B is a graph showing the results from flow cytometry analysis of the transduced cells.
Next, rACT was evaluated for its ability to inhibit HIV-1 replication in non-dividing cells. The transduction efficiency of an HIV-1 vector in primary human macrophages in the presence and absence of rACT was measured. Human macrophages, which were prepared from multiple donors, were pre-incubated with various concentrations of rACT, and then transduced with an HIV vector (D3-GFP), which expressed all HIV-1 proteins except Env and Nef (replaced with eGFP). Virus infectivity was determined by FACS analysis for GFP expression at 7 days post infection.
Dideoxy uracil triphosphate (ddUTP) was assessed for its ability to inhibit viral reverse transcription in non-dividing cells. […]
For data set [2], the system named is HIV-1 2-LTR DNA circles (proviral DNA synthesis) in macrophages. The experiment in a line: Quantitative 2LTR circle PCR in transduced macrophages. The class given is cell-based. The following applies: ddUTP treated cells.
Protocol: Human macrophages, which were prepared from multiple donors, were pre-incubated with various concentrations of rACT, and then transduced with an HIV vector (D3-GFP), which expressed all HIV-1 proteins except Env and Nef (replaced with eGFP).
(§3) Dideoxy uracil triphosphate (ddUTP) was assessed for its ability to inhibit viral reverse transcription in non-dividing cells. Primary human macrophages and CD4^+ T-cells were isolated from human buffy coats and pretreated with ddUTP. The treated cells were then transduced with a single round of VSV-G pseudotyped HIV-1 vector D3-HIV in the presence of various concentrations of drug.
Equal p24 level of the produced vector was used for infecting human macrophages pre-incubated with different concentrations of rACT (RI Chemicals, CA) for 12 hours. For ddUTP, the produced vector was pre-incubated for at least two hours. One half of the harvested cells were used for determining the percentages of the GFP expressing and/or propidium iodide (PI) stained cells by FACS at 7 days post infection. All cells used to asses transduction efficiency were gated or stained with propidium iodide to assure live cells were measured. The remaining cells were used for the extraction of genomic DNA. Quantitative 2LTR circle PCR assay using real-time PCR was normalized by total genomic DNA (Biorad, Hercules, Calif.).
The test system of data set [3] is HIV-1 vector (DHIV-GFP) in activated CD4+ T cells. The experiment in a line: HIV-GFP vector transduction of activated CD4+ T cells (GFP FACS). The class given is cell-based. To be noted: ddUTP, CD4+ T cells.
Protocol: Next, rACT was evaluated for its ability to inhibit HIV-1 replication in non-dividing cells. The transduction efficiency of an HIV-1 vector in primary human macrophages in the presence and absence of rACT was measured. Human macrophages, which were prepared from multiple donors, were pre-incubated with various concentrations of rACT, and then transduced with an HIV vector (D3-GFP), which expressed all HIV-1 proteins except Env and Nef (replaced with eGFP). Virus infectivity was determined by FACS analysis for GFP expression at 7 days post infection. […] Finally, the effect of rACT on HIV-1 infection in activated CD4^+ T cells was examined.
as §3
rACT was tested in T cells as follows, human primary activated CD4^+ T cells (2.5×10^5) cells isolated from two donors were pre-treated with 0, 0.1, and 1 mM rACT for 4 hours, and then the cells were transduced with DHIV-GFP. The transduced cells were fixed at 48 hours post transduction, and analyzed by FACS for determining the percent of GFP cells. […]
For data set [4], the system named is primary human macrophages.
Protocol: The treated cells were then transduced with a single round of VSV-G pseudotyped HIV-1 vector D3-HIV in the presence of various concentrations of drug.
The purified human monocytes from three different donors were differentiated to macrophages as described previously, and D3HIV-GFP vector system expressing GFP, was also prepared as previously described in Jamburuthugoda et al. J. Biol. Chem. 281:13388-13395 (2006); Diamond et al. J. Biol. Chem. 279:51545-51553 (2004); Jamburuthugoda et al. J. Biol. Chem. 283:9206-9216 (2008); and Weiss et al. Biochemistry 43:4490-4500 (2004). […] One half of the harvested cells were used for determining the percentages of the GFP expressing and/or propidium iodide (PI) stained cells by FACS at 7 days post infection. All cells used to asses transduction efficiency were gated or stained with propidium iodide to assure live cells were measured.
The target in data set [5] is T1, HIV-1 RT (Human immunodeficiency virus type 1 group M subtype B, UniProt P04585).
T1 construct: Pre-Steady State Kinetic Parameters of HIV-1 RT for dTTP/dUTP
The experiment in a line: Single nucleotide extension at macrophage nucleotide concentrations. It is filed as biochemical. The following applies: rNTP alone at macrophage concentration. An excerpt: FIGS. 4A-4E compare the dNTP and rNTP incorporation rates of HIV-1 RT at nucleotide concentrations found in human macrophages. Incorporation kinetics of HIV-1 RT (green circle) for individual dNTPs and rNTPs at their concentrations found in macrophages (see Table 1) were compared by single nucleotide extension reactions. FIG. 4A is a gel showing a representative time-course reaction set for dATP alone, ATP alone, or both dATP and ATP at their macrophage concentrations. P: unextended 17-mer primer, E: extended 18-mer product. and C: no RT control. FIG. 4B includes graphs. The percentages of the primer extension at early time points were plotted to compare the incorporation rate for each dNTP or rNTP alone as well as for dNTPs and rNTPs at their macrophage concentrations. FIG. 4C is a gel showing a time-course reaction. Identical reactions were conducted with SIVagm Sab-1 RT. FIG. 4D is a table showing the steady state Km values of HIV-1 RT to rNTPs determined by single nucleotide incorporation assays. FIG. 4E is a graph comparing rNTP concentrations (black bars) of macrophages and PBMCs and the Km values (red zone) of HIV-1 RT to rNTPs. Grey bars: average concentrations of dNTPs of the two target cell types obtained from Table 1.
The incorporation kinetics for individual dNTPs and rNTPs by retrovirus RT at the concentrations found in non-dividing cells were assessed. For this, a primer extension reaction similar to that used in FIG. 3C was employed, except nucleotide specific primers and a single dNTP, rNTP, or both were used to estimate individual nucleotide incorporation rates. […] Upon combining dNTPs and rNTPs in a reaction (FIGS. 4A and B, purple dotted lines), the total single nucleotide extension rate appeared to be elevated as compared to the rates of either dNTP (red line) or rNTP alone. When primer extension products were plotted by time, primer extension was accelerated in the presence of both dNTPs and rNTPs at their macrophage concentrations as compared to the reactions containing either dNTPs or rNTPs alone. The results of this single nucleotide assay are consistent with the data from the multiple nucleotide incorporation assay (FIG. 3C).

The target of data set [6] is T1, HIV-1 RT. Briefly: Steady state kinetics of reverse transcriptase for dTTP/dUTP. The class given is biochemical. The procedure:
(§1) Retrovirus RT was assessed for its ability to incorporated dTTP and dUTP at physiologically relevant concentrations. First, Km of HIV-1 RT, SIV RT, MuLV RT, and FIV RT for both dTTP and dUTP was measured.
The single nucleotide incorporation reactions were conducted using 20 nM template/primers (40mer RNA template annealed to Primer A, Ext-T primer, Ext-G primer, or Ext-C primer) and 20 nM RT in 1× reaction buffer for 5 minutes at varying concentrations of NTP. Reactions were performed in triplicate.
(§2) All primer extension reactions were analyzed with urea denaturing 10-16% PAGE gels and scanned with a phosphoimager (Biorad, Hercules, Calif.) and quantified with the Biorad Quantity One software. Nonlinear regression analysis was done with Kaleida Graph (Synergy Software, Reading, Pa.). Rates were determined with a single exponential, and Michaelis Menten fits were completed as previously described in Kennedy et al. Biochemistry 48:11161-11168 (2009).

For another data set, the system named is SIVagm Sab1 RT. The description is as above. It is filed as biochemical, simian immunodeficiency virus (SIVagm Sab). To be noted: SIV RT. The procedure:
as §1, §2

In a further data set the target is FIV RT (Feline immunodeficiency virus, UniProt P16088). The data set is described as above. It is filed as biochemical. The procedure:
as §1, §2

The target in a further data set is MuLV RT (Moloney murine leukemia virus, UniProt P03355). The description is as above. The class given is biochemical. The procedure: as §1, §2
Data set [7] addresses T1, HIV-1 RT. Briefly: Pre-steady state quench flow titrations for dTTP and dUTP. It is filed as biochemical. The protocol:
To confirm that selectivity is not pronounced during the binding or isomerization steps of polymerization, pre-steady state quench flow titrations for dTTP and dUTP were performed with HIV-1 RT.

Data set [8] has as its target T1, HIV-1 RT. The experiment in a line: Primer extension followed by E. coli UNG2 digestion (dUTP incorporation). The class given is biochemical. The procedure:
FIG. 8A includes a schematic of a coupled RT extension reaction UNG2 digestion assay and a gel. RT was incubated with i) the dNTP concentrations found in macrophages or PBMCs, and ii) either the dUTP concentration for those cells types or ddH20. These reactions were quenched with EDTA and subjected to E. Coli UNG2 digestion, followed by 95° C. incubation and UREA PAGE gel electrophoresis. The digested bands (*) were quantified and plotted relative to total unextended and extended products. […] FIG. 8C includes a gel showing the results of single nucleotide extension reactions of HIV-1 RT with dTTP and dUTP concentrations found in macrophages. […] The rates of product formation for dTTP (black line), dUTP (blue line), and both dTTP and dUTP (green line) were plotted.
HIV-1 RT mediated DNA synthesis in nucleotide pools found in dividing and non-dividing cells was further assessed using a primer extension assay followed by E. coli UNG2 digestion to quantify the amount of dUTP incorporated under these condition (FIG. 8). The presence of a […] band at the first dTTP/dUTP incorporation site was used to monitor the fraction of DNAs that contained a dUTP following UNG digestion (see * in FIG. 8). […] The single nucleotide extension assays were performed to compare the rate of incorporation dTTP, dUTP, or both nucleotides at concentrations found in non-dividing cells. […]

Each structure is given as a SMILES string.

Take `O=c1ccn([C@H]2CC[C@@H](COP(=O)(O)OP(=O)(O)OP(=O)(O)O)O2)c(=O)[nH]1` [ddUTP, Dideoxy uracil triphosphate]: the “inhibition of transduction (eGFP positive live macrophages)” value in data set [1] is “dose dependent inhibition of transduction”. For the same compound, in data set [2], the “2LTR circles (QT-PCR)” value is listed as 2LTR circles accumulated in the cells treated with higher concentrations of drug. Besides, in data set [3], the “reduction in transduction efficiency” value is “Little or no reduction in transduction efficiency”. For the same compound, the cell death entry in [4] is “little cell death”.

Regarding `Nc1nc2c(ncn2[C@@H]2O[C@H](COP(=O)(O)OP(=O)(O)OP(=O)(O)O)[C@@H](O)[C@H]2O)c(=O)[nH]1` [GTP], at HIV-1 RT [5], the “rNTP incorporation by HIV-1 RT” value was “less efficiently”.

The Km is the substrate concentration at which the rate is half of its maximum. In general, Kd refers to the free concentration of one partner at which half of the binding sites on the other are occupied at equilibrium, for simple one-to-one binding. A lower Kd goes with a tighter complex. In the case of `Cc1cn([C@H]2C[C@H](O)[C@@H](COP(=O)(O)OP(=O)(O)OP(=O)(O)O)O2)c(=O)[nH]c1=O` [dTTP], on HIV-1 RT [6], the Km stood at 0.0218 ± 0.0028 µM and the “Selectivity (dTTP/dUTP)” value was found to be 1.298. In the data set with SIVagm Sab1 RT, the Km was determined as 0.0184 ± 0.0043 µM and the “Selectivity (dTTP/dUTP)” value was found to be 0.839. Further, at FIV RT, the Michaelis-Menten constant (Km) is 0.0586 ± 0.0066 µM and the “Selectivity (dTTP/dUTP)” value is 3.754. Moreover, at MuLV RT, the Km was determined as 0.0504 ± 0.022 µM and the “Selectivity (dTTP/dUTP)” value was determined as 4.969. Besides, on HIV-1 RT [7], the Kd was 3.4 ± 0.62 µM, the Kpol is on record as 85.72 ± 7.3 S^−1, the Selectivity stood at 1.0 and the kpol/kd was 25 μM^−1 S^−1.

As to `Nc1ncnc2c1ncn2[C@@H]1O[C@H](COP(=O)(O)OP(=O)(O)OP(=O)(O)O)[C@@H](O)[C@H]1O` [ATP], the “rNTP incorporation by HIV-1 RT” value on HIV-1 RT [5] is listed as “efficiently”.

With `O=c1ccn([C@@H]2O[C@H](COP(=O)(O)OP(=O)(O)OP(=O)(O)O)[C@@H](O)[C@H]2O)c(=O)[nH]1` [UTP], the “rNTP incorporation by HIV-1 RT” value on HIV-1 RT [5] was “less efficiently”.

In the case of `O=c1ccn([C@H]2C[C@H](O)[C@@H](COP(=O)(O)OP(=O)(O)OP(=O)(O)O)O2)c(=O)[nH]1` [dUTP], the Km on HIV-1 RT [6] came out at 0.0277 ± 0.007 µM; with SIVagm Sab1 RT it was 0.017 ± 0.0035 µM; at FIV RT it was 0.18 ± 0.0045 µM; on MuLV RT, 0.253 ± 0.0521 µM. At HIV-1 RT [7], this compound had a Kd of 5.1 ± 1.93 µM. On HIV-1 RT [7], this compound came in with a Kpol of 194.39 ± 30.0 S^−1. Also, at HIV-1 RT [7], the Selectivity amounted to 1.52. Further, the kpol/kd on HIV-1 RT [7] came out at 38 μM^−1 S^−1. The “dUTP incorporation, fraction of all synthesized DNA” value on HIV-1 RT [8] (dUTP and dNTP levels found in non-dividing cells) is “⅓”. Moreover, the “dUTP incorporation, non-dividing versus dividing cell environment” value on HIV-1 RT [8] (non-dividing compared to dividing cell environment) was “approximately 5 fold”.

Regarding `Nc1ccn([C@@H]2O[C@H](COP(=O)(O)OP(=O)(O)OP(=O)(O)O)[C@@H](O)[C@H]2O)c(=O)n1` [CTP], on HIV-1 RT [5], the “rNTP incorporation by HIV-1 RT” value is on record as “efficiently”.

(Values after patent US9289445B2, “Compositions and methods for treating or preventing a retrovirus infection” (University of Rochester, priority 2011, dated 2016).)
